By Ki is commonly meant a dissociation constant, usually derived from enzyme kinetics or from competition with a known ligand. High values mean weaker binding, low ones tighter binding. By IC50 is commonly meant the midpoint of a concentration-inhibition curve. The term Papp A→B denotes the apparent permeability from the apical to the basolateral side of a cell layer. The low end stands for slow passage, the high end for fast passage. For orientation: Papp B→A means the apparent permeability from the basolateral to the apical side of a cell layer. By inhibition is commonly meant the percentage by which the read-out fell short of the control. Higher therefore signals a response far below the control.

One data set concerns the target T1, κ opioid receptor (KOR) (Mus musculus, UniProt P33534).
T1 construct: expressed in transfected cells; host or cells: CHO (mKOR-CHO), membrane preparation
In words: Competitive radioligand binding assay, KOR. As for the experimental part: The competition binding assay was performed using monoclonal mouse opioid receptors expressed in CHO cell lines (monoclonal human δ opioid receptor was used for the DOR assay).
The bound radioligand was separated using a Brandel harvester. Specific binding to the MOR, KOR, and DOR was calculated by subtracting the binding observed in the presence of 5 μM naltrexone, U50488, and SNC80, respectively, from the binding in their absence. Relative affinity values (IC50) were determined by fitting displacement binding inhibition data to a nonlinear regression model using GraphPad Prism 8.0 (GraphPad Software, San Diego, CA). The % inhibition was calculated using the formula: % inhibition = 100% - [(binding with the tested compound - nonspecific binding)/specific binding] × 100%. The IC50 values were converted to Ki values using the Cheng-Prusoff equation: Ki = IC50/ [1 + ([L*]/KD)], where [L*] is the concentration of the radioligand and KD is the KD of the radioligand.[68]

The target in another data set is T2, MOR (Mus musculus, UniProt P42866).
T2 construct: expressed in transfected cells; host or cells: CHO (MOR-CHO), membrane preparation
In words: MOR calcium flux assay in Gαqi5-transfected mMOR-CHO cells. The data set is classed as cell-based.

Data set [1] in a line: Caco-2 permeability studies. The note with it: human, 1 h incubation. Type of data set: in vitro ADME. As for the experimental part: Caco-2 cells (HTB-37) were cultured in T75 flasks using DMEM supplemented with 10% FBS, 1% glutamine, penicillin, and streptomycin at 37 °C and 5% CO2. Cells were passaged at 80–90% confluency and seeded into Millipore 96-well plates (25,000 cells/well) to form monolayers, with media changed every 2–3 days for 21 days until 100% confluency. Permeability studies involved adding 10 μM compound 6 to the apical (A) or basolateral (B) side and measuring permeation across the monolayer. Lucifer yellow dye (100 μM) was used in the A-side buffer as a control. Incubation lasted 1 h, and permeability was assessed using ranitidine/colchicine (low permeability) and labetalol/propranolol (high permeability) as controls. Samples were collected, quenched with methanol, centrifuged, and analyzed by HPLC-MS/MS to determine peak area ratios.
Data was expressed as [drawing 1] here VR is the volume of the receiver chamber. CR,end is the concentration of the test compound in the receiver chamber at the final time point, Δt denotes the incubation time, and A is the surface area of the cell monolayer. CD,mid is the average midpoint concentration of the test compound on the donor side, calculated as the mean of the donor concentrations at 0 min and at the end time point. […] Test compound concentrations were determined based on their peak areas.
(Caco-2 cells form a polarised layer with tight junctions and transporters.)

The target in the next data set is T3, CYP2C19 (Homo sapiens, UniProt P33261).
T3 construct: Eurofins Panlabs, Inc. (contract laboratory)
In words: Cytochrome P450 inhibition assay, CYP2C19. The data set is classed as in vitro ADME. The protocol: (§1) The ADMET assessment including the hERG inhibitory activity, plasma protein binding, in vitro metabolic stability profile, CYP inhibitory effect and mutagenic evaluation were conducted by Eurofins Panlabs, Inc.[21],[61],[69]−[71]

The next data set concerns typical tester strains. In words: Bacterial reverse mutation assay. The note with it: up to 100 μM. The protocol:
as §1

“Also recorded” adds a separate entry of the source. Counter-ions that a name gives are not always drawn.

In the case of `O=C(N[C@H]1CC[C@@]2(O)[C@H]3Cc4ccc(O)c5c4[C@@]2(CCN3CC2CC2)[C@H]1O5)c1nccs1` [Compound 6, 17-Cyclopropylmethyl-3,14β-dihydroxy-4,5α-epoxy-6α-(2′-thiazolylcarboxamido)-morphinan hydrochloride], the inhibition constant (Ki) at κ opioid receptor (KOR) stood at 1.3 ± 0.12 nM. At κ opioid receptor (KOR) (ratio of Ki values), the “Selectivity κ/μ” value stood at 5. On MOR, the IC50 amounted to 5.64 ± 0.24 nM. Moreover, the “Agonistic activity in increasing intracellular calcium, in words” value on MOR (compared to full MOR agonist DAMGO) was “no apparent agonism; also recorded: none of them showed any significant agonistic activity”. Also, in data set [1], the Papp A→B at 1 h, 10 μM was found to be 13.1 ×10⁻⁶ cm/s and the Papp B→A at 1 h, 10 μM is 33.2 ×10⁻⁶ cm/s. For the same compound, testing at 10 µM on CYP2C19 (1.0E-05 M) gave an inhibition of 78.4%. The same compound registered an inhibition at 100 nM against CYP2C19 (1.0E-07 M) of 13.2%. For the same compound, the “Mutagenic potential, in words” value in the data set with typical tester strains is reported as “no mutagenic potential”.

The values are drawn from article PMC11651181, “Discovery of 6α-Thiazolylcarboxamidonaltrexamine Derivative (NTZ) as a Potent and Central Nervous System Penetrant Opioid Receptor Modulator with Drug-like Properties for Potential Treatment of Opioid Use Disorder” (ACS Pharmacology & Translational Science, 2024).
